# What was measured:
# Crotalus atrox venom = assay: Thrombelastography of human plasma pretreated with iron and/or CO, then incubated with Crotalus atrox venom (Example I); type: biochemical; settings: 0.5 μg/ml venom, 5 min incubation
# Method: Two-hundred mg of lyophilized, pooled venom was obtained from four western diamondback rattlesnakes (Crotalus atrox) for experimentation. Venom was reconstituted in calcium-free phosphate buffered saline (PBS, Sigma-Aldrich, Saint Louis, Mo., USA) at a concentration of 20 mg/ml, aliquoted, and then stored at −80° C. until experimentation at the University of Arizona. Pooled human normal plasma (George King Bio-Medical, Overland Park, Kans., USA) anticoagulated with sodium citrate was rapidly thawed at 37° C. and used for experimentation. To assess the effects of pretreatment of fibrinogen with iron, CO, or both, 1% additions of PBS, ferric chloride (FeCl3, 99.9% pure, Sigma-Aldrich, Saint Louis, Mo., USA) in PBS, or CORM-2 (tricarbonyldichlororuthenium (II) dimer, a CO releasing molecule, Sigma-Aldrich, Saint Louis, Mo., USA) dissolved in dimethyl sulfoxide (DMSO, Sigma-Aldrich, Saint Louis, Mo., USA). The final concentrations of FeCl3 and CORM-2 were 10 μM and 100 μM, respectively; these concentrations are associated with nearly maximal augmenting effects on coagulation kinetics (see, Nielsen V G, et al., Blood Coagul Fibrinolysis 2014; 25:695-702). Plasma was exposed to these various agents for at least 5 min prior to incubations with venom.
# The final volume for all subsequently described plasma sample mixtures was 359.4 μl. Sample composition consisted of 326 μl of plasma; 10 μl of tissue factor reagent (0.1% final concentration in distilled water; Diagnostica Stago S.A.S., Asnieres sur Seine, France) and 3.4 μl of PBS or venom (final concentration 0.5 μg/ml). […] The aforementioned plasma and venom mixtures were placed in a disposable cup in a computer-controlled Thrombelastograph® hemostasis system (Model 5000, Haemoscope Corp., Niles, Ill., USA) and incubated for 5 or 20 min at 37° C., with addition of 20 μl of 200 mM CaCl2) as the last step to initiate clotting. Data were collected at 37° C. for 15 min after 5 min of incubation, whereas samples incubated with venom for 20 min had data collected for 30 min, given the prolonged onset of coagulation and diminished rate of thrombus formation. The following elastic modulus-based parameters previously described (see, Nielsen, et al., 2014, Blood Coagul. Fibrinolysis 25:695-702; Nielsen, et al., 2011, Blood Coagul. Fibrinolysis 22: 443-447); Nielsen V G, et al., Blood Coagul Fibrinolysis 2014; 25:845-850) were determined: time to maximum rate of thrombus generation (TMRTG): this is the time interval (min) observed prior to maximum speed of clot growth; maximum rate of thrombus generation (MRTG): this is the maximum velocity of clot growth observed (dynes/cm^2/sec); and total thrombus generation (TTG, dynes/cm^2), the final viscoelastic resistance observed after clot formation.
# Data are presented as mean+SD. A commercially available statistical program was used for one-way analysis of variance followed by Holm-Sidak post hoc analyses (SigmaStat 3.1, Systat Software, Inc., San Jose, Calif., USA). Graphics depicting viscoelastic data were generated with a commercially available program (OrigenPro 7.5, OrigenLab Corporation, Northampton, Mass., USA; CorelDRAW12, Corel Corporation, Mountain View, Calif., USA).
# [1] = test system: Crotalus atrox venom-enhanced tissue-type plasminogen activator initiated fibrinolysis; assay: Thrombelastography of human plasma pretreated with iron and/or CO before venom exposure in the presence of tPA (Example II); type: biochemical; settings: 100 IU/ml tPA, vs matched samples without or with venom exposure (0.5 μg/ml)
# Method: Two hundred mg of lyophilized, pooled venom was obtained from four western diamondback rattlesnakes (Crotalus atrox) for experimentation. Venom was reconstituted in calcium-free phosphate buffered saline (PBS, Sigma-Aldrich, Saint Louis, Mo., USA) at a concentration of 20 mg/ml, aliquoted, and then stored at −80° C. until experimentation at the University of Arizona.
# Pooled normal plasma (George King Bio-Medical, Overland Park, Kans., USA) anticoagulated with sodium citrate was rapidly thawed at 37° C. and used for experimentation. To assess the effects of pretreatment of antifibrinolytic plasma proteins with iron, CO, or both, 1% additions of PBS, ferric chloride (FeCl3, 99.9% pure, Sigma-Aldrich, Saint Louis, Mo., USA) in PBS, or CORM-2 (tricarbonyldichlororuthenium (II) dimer, a CO releasing molecule, Sigma-Aldrich, Saint Louis, Mo., USA) dissolved in dimethyl sulfoxide (DMSO, Sigma-Aldrich, Saint Louis, Mo., USA) were used. […] Plasma was exposed to these various agents for at least 5 min prior to incubations with venom.
# The final volume for all subsequently described plasma sample mixtures was 359.4 μl. Sample composition consisted of […] of plasma; 10 μl of tissue factor reagent (0.1% final concentration in distilled water; Diagnostica Stago S.A.S., Asnieres sur Seine, France), 10 μl of tissue type plasminogen activator (tPA, 580 IU/μg, Genentech, Inc., San Francisco, Calif., USA; 100 IU/ml final concentration) and 3.4 μl of PBS or venom (final concentration 0.5-2.0 μg/ml). […] The aforementioned plasma and venom mixtures were placed in a disposable cup in a computer-controlled Thrombelastograph® hemostasis system (Model 5000, Haemoscope Corp., Niles, Ill., USA) and incubated for 5 min at 37° C., with addition of 20 μl of 200 mM CaCl2) as the last step to initiate clotting. Data were collected at 37° C. until clot lysis time (CLT) was observed. The following elastic modulus-based parameters previously described (see, Nielsen V G, Pretorius E. Blood Coagul Fibrinolysis 2014; 25:695-702) were determined: time to maximum rate of thrombus generation (TMRTG): this is the time interval (min) observed prior to maximum speed of clot growth; maximum rate of thrombus generation (MRTG): this is the maximum velocity of clot growth observed (dynes/cm^2/sec); total thrombus generation (TTG, dynes/cm^2), the final viscoelastic resistance observed after clot formation; time to maximum rate of lysis (TMRL, min), maximum rate of lysis (MRL, dynes/cm^2/sec) and CLT (min). Lastly, to assess if venom had thrombolytic properties that were tPA independent, n=4 replicates were performed wherein no tPA was added and data were collected for 3 h.
# Data are presented as mean±SD. All conditions unless otherwise indicated were represented by n=8 replicates. This number of replicates reliably provides a statistical power>0.8 for P<0.05 (see, Nielsen V G, Pretorius E. Blood Coagul Fibrinolysis 2014; 25:695-702). A commercially available statistical program was used for two-way analysis of variance (ANOVA) to assess interactions of venom and tPA on coagulation kinetics and interactions of iron and CO on venom-enhanced fibrinolysis (SigmaStat 3.1, Systat Software, Inc., San Jose, Calif., USA). Additional one-way ANOVA followed by Holm-Sidak post hoc analyses were performed to assess differences between the conditions. Graphics depicting viscoelastic data were generated with a commercially available program (OrigenPro 7.5, OrigenLab Corporation, Northampton, Mass., USA).
# [2] = 10 μM ferric chloride or 100 μM CORM-2
smiles,measurement,setting,value
"[Cl][Fe]([Cl])[Cl] [iron, ferric chloride]","maximum rate of thrombus generation (MRTG), change on venom exposure",Crotalus atrox venom; vs matched venom naïve samples,significantly decreased
same,maximum rate of thrombus generation (MRTG),Crotalus atrox venom; vs plasma without additions exposed to venom,significantly greater
same,time to maximum rate of thrombus generation (TMRTG),Crotalus atrox venom; vs samples without iron/CO additions or with CO addition alone,significantly smaller
same,clot lysis time (CLT),[1]; [2],significantly greater
same,maximum rate of thrombus generation (MRTG),[1]; [2],greater
same,time to maximum rate of lysis (TMRL),[1]; [2],significantly greater
same,total thrombus generation (TTG),[1]; [2],greater
same,maximum rate of lysis (MRL),[1]; 10 μM ferric chloride,significantly greater
same,time to maximum rate of thrombus generation (TMRTG),[1]; 10 μM ferric chloride,significantly lesser

# Reference: US10828326B2, “Compositions and methods for treating and preventing venom related poisoning” (priority 2015, dated 2020)
